Assay results taken from US20130143304A9, “LIGF-TYPE SYSTEMS FOR BIOCONVERSION OF LIGNIN-DERIVED COMPOUNDS” (priority 2010, published 2013).

How the values were obtained:
[1] = system: Escherichia coli; conditions: each compound alone, cited from earlier work; for antibacterial activity against Escherichia coli: benzaldehyde derivatives; for antimicrobial activity against Escherichia coli: known
[2] = system: yeast Saccharomyces cerevisiae; conditions: each compound alone; cited from earlier work
[3] = in vitro biochemical assay for beta-etherase activity on fluorescent substrate MUAV (clarified E. coli cell extracts, 4MU fluorescence)
Protocol: This example describes a method for gene expression in E. coli, as well as beta-etherase biochemical assays. Expression of known and putative beta-etherase genes was performed using 5 ml cultures of the recombinant E. coli strains described herein in Luria Broth medium by induction of gene expression using isopropylthiogalactoside (IPTG) to a final concentration of 0.1 mM. Following induction, and cell harvest, the cells were disrupted using either sonication or the BPER (Invitrogen) cell lysis system.
In vitro reactions were performed in a total volume of 200 ul and contained: 25 mM TrisHCl pH 7.5; 0.5 mM dithiothreitol; 1 mM glutathione; 0.05 mM or 0.1 mM MUAV; 10 ul of clarified cell extract used to initiate the reactions. Following incubation for 2.5 hours at room temperature, a 50 ul sample of the reactions was terminated using 150 uL of 300 mM glycine/NaOH buffer pH 9. The formation of 4 methylumbelliferone (4MU) upon hydrolysis of the aryl ether bond was monitored by the increase in fluorescence at λex=360 nm and λem=450 nm using a Spectramax UV/visible/fluorescent spectrophotometer.
The total protein concentrations of the cell lysates were determined using the BCA reagent system for protein quantification (Pierce). […]

[4] = reactions containing 0.1 mM MUAV substrate, E. coli cell extracts expressing the protein

Question: With `O=Cc1cccc(O)c1O` [2,3-dihydroxybenzaldehyde] as the molecule, how does the “antibacterial activity against Escherichia coli” value (“antibacterial activity” below) [1] read?
Answer: antibacterial activity

Question: Which “antimicrobial activity against Escherichia coli” value (“antimicrobial activity” below) [1] does the source give for `O=Cc1ccc(CO)o1` [5-hydroxymethylfurfural] here?
Answer: antimicrobial activity

Question: With `O=Cc1ccc(O)c(O)c1O` [2,3,4-trihydroxybenzaldehyde] as the molecule, how does the “antibacterial activity” value [1] read?
Answer: antibacterial activity

Question: With `O=Cc1ccc(O)cc1` [4-hydroxybenzaldehyde] as the molecule, how does the “antimicrobial activity” value [1] read?
Answer: antimicrobial activity

Question: With `O=Cc1ccccc1O` [2-hydroxybenzaldehyde] as the molecule, how does the “antibacterial activity” value [1] read?
Answer: antibacterial activity

Question: With `O=C(O)/C=C/c1ccccc1O` [o-coumaric acid] as the molecule, how does the “antifungal activity against the yeast Saccharomyces cerevisiae” value (“antifungal activity” below) [2] read?
Answer: significant antifungal activities

Question: With `O=C(O)/C=C/c1ccc(O)cc1` [p-coumaric acid] as the molecule, how does the “antifungal activity” value [2] read?
Answer: significant antifungal activities

Question: For `COc1cc(O)cc(OC)c1C=O` [4-hydroxy-2,6-dimethoxybenzaldehyde], which “antibacterial activity” value [1] is on record?
Answer: antibacterial activity

Question: Which “antimicrobial activity” value [1] does the source give for `COc1cc(C=O)cc(OC)c1O` [syringaldehyde] here?
Answer: antimicrobial activity

Question: With `O=Cc1cc(O)ccc1O` [2,5-dihydroxybenzaldehyde] as the molecule, how does the “antibacterial activity” value [1] read?
Answer: antibacterial activity

Question: Which “antifungal activity” value [2] does the source give for `COc1cc(CCC(C)=O)ccc1O` [vanillylacetone] here?
Answer: significant antifungal activities

Question: For `O=C(O)/C=C/c1cccc(O)c1` [m-coumaric acid], which “antifungal activity” value [2] is on record?
Answer: significant antifungal activities

Question: Which “antibacterial activity” value [1] does the source give for `COc1cccc(C=O)c1O` [2-hydroxy-3-methoxybenzaldehyde] here?
Answer: antibacterial activity

Question: Which “antibacterial activity” value [1] does the source give for `O=Cc1c(O)cc(O)cc1O` [2,4,6-trihydroxybenzaldehyde] here?
Answer: antibacterial activity

Question: For `COc1cc(C=O)ccc1O` [vanillin], which “antimicrobial activity” value [1] is on record?
Answer: antimicrobial activity

Question: For `O=Cc1ccc(O)cc1O` [2,4-dihydroxybenzaldehyde], which “antibacterial activity” value [1] is on record?
Answer: antibacterial activity

Question: For `COc1ccc(O)c(C=O)c1` [2-hydroxy-5-methoxybenzaldehyde], which “antibacterial activity” value [1] is on record?
Answer: antibacterial activity

Question: Which “antifungal activity” value [2] does the source give for `O=C(O)C=Cc1ccccc1` [cinnamic acid] here?
Answer: significant antifungal activities

Question: For `COc1cc(C(=O)O)ccc1O` [vanillic acid], which “antifungal activity” value [2] is on record?
Answer: significant antifungal activities

Question: For `COc1ccc(C=O)cc1OC` [Veratraldehyde], which “antifungal activity” value [2] is on record?
Answer: significant antifungal activities

Question: For `O=Cc1ccco1` [furfural], which “antimicrobial activity” value [1] is on record?
Answer: antimicrobial activity

B1: LigF2: N. aromaticivorans beta-etherase, glutathione S-transferase-like polypeptide, recombinantly expressed in E. coli (protein)
chain: MALKYYHAEPLANSLKSMVPLKEKGLAYESIYVDLHKFEQHQPWFTAINPEGQVPVLDHDGTIITHTTVINEYLEDAFPDAQPADAPLRPRDPVGAARMRYWNKFIDEHVMNYVSMHGWHRMVGVIARNIASGDFEKLLESIPLPDQRKKWATARSGFSEADLANATAKIEYALDKVEKQLGETKWLAGDTYTLADINFYSHCGAMVERMFPEMEVARRAPRLCEWRDRVAARPAVAEALKSEDRTAPGLRVWSGEVR
Question: With B1 as the molecule, how does the “total activity (beta-etherase)” value ([3]; MUAV substrate, concentration not given) read?
Answer: 1206 rfu/ug

B2: ligE: S. paucimobilis ligE beta-etherase, positive control polypeptide (protein)
chain: MARNNTITLYDLQLESGCTISPYVWRTKYALKHKGFDIDIVPGGFTGILERTGGRSERVPVIVDDGEWVLDSWVIAEYLDEKYPDRPMLFEGPTQKNLMKFLDNWLWSTAVGPWFRCYILDYHDLSLPQDRDYVRWSREQWFLGGQRLEDVQAGREDRLPLVPPTLEPFRRILAETKWLGGDQPNFADYSALAVFLWTASVARTPPLTEDDPLRDWLDRGFDLFDGLGRHPGMNPLFGLKLREGDPEPFVRQTGPAGAGGQALNKGPQTTKMPPRVAEKAD
Question: For B2, which “total activity (beta-etherase)” value [3, 4] is on record?
Answer: 7 rfu/ug

B3: ligE1: N. aromaticivorans beta-etherase, glutathione S-transferase-like polypeptide, recombinantly expressed in E. coli (protein)
chain: MAANNTITFYDLALSTGATISPFVWATKYALKHKGFDLDVVPGGFTGILERTGGKTERLPAIVDDGEFVLDSWGIVEYLDAKYPDRPVLIPHESVAATLKALDNWFWNAAVGPWMFCFCQDYRDLSLPQDHEYVTHSREKMLGRKLEEVQAGREERLPKISAALEPLRAALAQHQWLGGSSPNYADYRIMGGILFTASVCKTPVLANDDPLRDWIERCLDLYGGLGRHPGLFPLFGLEQREGDPDLFNRAAGQGGIYKRNTGPESTRAETQRITEGMKK
Question: With B3 as the molecule, how does the “fold more efficient than S. paucimobilis ligE beta-etherase” value ([3]; MUAV substrate) read?
Answer: approximately 75 fold

Question: And the “total activity (beta-etherase)” value [3, 4]?
Answer: 529 rfu/ug
